Experimental data: patent publication EP2792360A1, “(1aR,12bS)-8-cyclohexyl-11-fluoro-N-((1-methylcyclopropyl)sulfonyl)-1a-((3-methyl-3,8-diazabicyclo[3.2.1]oct-8-yl)carbonyl)-1,1a,2,2b-tetrahydrocyclopropa[d]indolo[2,1-a][2]benzazepine-5-carboxamide for use in treating HCV” (IP Gesellschaft für Management mbH, priority 2013, dated 2014)

What was measured:
[1] = tested on: genotype lb HCV replicon (Huh-7); assay: microbe, parasite or virus in culture; details: Hepatitis C virus, Huh-7, 72 h
Description: The protein was expressed with an 18 amino acid C-terminal truncation to enhance the solubility. The E. coli competent cell line BL21(DE3) was used for expression of the protein. […] The cultures were cooled to 20 °C and induced with 1 mM IPTG. […] After addition of the lysis buffer, frozen cell pellets were resuspended using a tissue homogenizer. To reduce the viscosity of the sample, aliquots of the lysate were sonicated on ice using a microtip attached to a Branson sonicator. […] The protein was purified using two sequential chromatography steps: Heparin sepharose CL-6B and polyU sepharose 4B. […] Each column was eluted with a NaCl gradient which varied in length from 5-50 column volumes depending on the column type. […] The enzyme was aliquoted and stored at -80 °C. […] Unbound primer was removed after centrifugation. […] After incubating for at least 15 minutes, plates were read on an Amersham LEADseeker multimodality imaging system. IC50 values for compounds were determined using ten different [I]. […] Cell lines. […] These cells were maintained in Dulbecco's modified Eagle medium (DMEM) containing 10% FBS, 100 U/mL penicillin/streptomycin and 1.0 mg/mL G418. […]

[2] = tested on: uric acid in urine; assay: Multiple dose study of TS dispersion, 14 days (Example 6): uric acid excretion in urine; format: in vivo, healthy subjects and elderly subjects; details: 24 hour urine, Days 1, 6, 14, 16; returns to baseline by Day 16
Description: Example 6 - Multiple dose study: a double-blind, randomized, placebo-controlled, study in healthy subjects and elderly subjects: Multiple oral doses of 4-[2-(5-amino-1 H-pyrazol-4-yl)-4-chlorophenoxy]-5-chloro-2-fluoro-N-(1,3-thiazol-4-yl)benzenesulfonamide TS dispersion for oral administration, and placebo, were investigated for 14 days, as follows: • healthy subjects, 300 mg twice daily (BID,) • healthy subjects, 450 mg BI D, and • elderly subjects, 300 mg BID.
Subjects were fasted overnight prior to the morning doses and for at least 2 hours prior to the evening doses. Food was withheld for at least 2 hours postdose. A total of 49 subjects were enrolled in the study of which 39 received 4-[2-(5-amino-1 H-pyrazol-4-yl)-4-chlorophenoxy]-5-chloro-2-fluoro-N-(1,3-thiazol-4-yl)benzenesulfonamide TS and 10 received placebo. […]
Concentrations of uric acid in blood decreased following dosing with 4-[2-(5-amino-1 H-pyrazol-4-yl)-4-chlorophenoxy]-5-chloro-2-fluoro-N-(1,3-thiazol-4-yl)benzenesulfonamide. All subjects had blood uric acid values above the LLN on Day 1. […] Uric acid was also measured in urine collected over 24 hours prior to dosing on Day 1, and then on Days 6, 14 and 16. The percent excreted fraction of uric acid in urine was calculated and analyzed with a linear mixed effects model.

[3] = tested on: blood uric acid; assay: Multiple dose study of TS dispersion, 14 days (Example 6): blood uric acid level; format: in vivo, healthy subjects and elderly subjects
Description: Example 3 - Preparation of dispersions for oral administration: (a) Using the tosylate salt of 4-r2-(5-Amino-1 H-pyrazol-4-yl)-4-chlorophenoxyl-5- chloro-2-fluoro-N-(1,3-thiazol-4-yl)benzenesulfonamide: Methylcellulose vehicle (0.5% w/v) was prepared as follows. Water for irrigation (600 ml.) was heated in a beaker to between 80°C and 90°C. Methylcellulose (5 g) powder was added, with stirring, until the powder had fully dispersed. The dispersion was then transferred into an ice bath and cooled rapidly whilst adding chilled water for irrigation (400 ml.) to give a clear solution. The dispersion for oral administration was prepared by weighing the required quantity of 4-[2-(5-amino-1 H-pyrazol-4-yl)-4-chlorophenoxy]-5-chloro-2-fluoro-N- (1,3-thiazol-4-yl)benzenesulfonamide tosylate (from 10mg to 2400mg) into an appropriately sized glass amber dosing bottle and adding a volume of vehicle (0.5% (w/v) methylcellulose). The volume of vehicle added was dependant on dose: 15 ml. for doses of drug in the range 10 mg to < 30 mg; and 50 ml. for doses of drug in the range 30 mg to 2400 mg, so that the drug concentration was in the range 0.6 to 50 mg/mL. The dispersion was stored at 2 to 8°C and administered within 72 hours directly from the dosing containers. After administration the glass dosing bottle was rinsed with two approximate equal aliquots of drinking water such that the total volume administered, including dosing volume, was 240 ml_. (b) Using the SDD of 4-[2-(5-Amino-1 H-pyrazol-4-yl)-4-chlorophenoxyl-5-chloro-2- fluoro-N-(1,3-thiazol-4-yl)benzenesulfonamide: Methylcellulose vehicle 0.5% (w/v) was prepared using the procedure set out in Example 3(a) above. The dispersion for oral administration was prepared by weighing the required quantity of 4-[2-(5-amino-1 H-pyrazol-4-yl)-4-chlorophenoxy]-5-chloro-2-fluoro-N- (1,3-thiazol-4-yl)benzenesulfonamide SDD into an appropriately sized glass amber dosing bottle and adding a volume of vehicle (0.5% (w/v) Methylcellulose). The volume of vehicle added was dependent on dose: 20 ml. to 100 ml. over the dose range 10 mg to 2400 mg, so that the drug concentration was in the range 0.6 to 50 mg/mL. The dispersion was stored at 2 to 8°C and administered within 72 hours directly from the dosing containers. After administration the glass dosing bottle was rinsed with two approximate equal aliquots of drinking water such that the total volume administered, including dosing volume, was 240 ml_. […] Uric acid measurements were performed using a commercial colorimetric assay kit (Beckman Coulter). […]

Row | SMILES | EC50 [1] | excreted fraction of uric acid in urine [2] | day on which median blood uric acid concentrations fell below LLN ([3]; 450 mg BID) | median blood uric acid concentration relative to LLN ([3]; all cohorts (300 mg and 450 mg BID), Day 6) | Concentrations of uric acid in blood ([3]; following dosing, given as TS dispersion 300 mg or 450 mg BID) | time after cessation of dosing until blood uric acid returned to above the LLN for all subjects ([3]; i.e. by Day 16)
1 | CN1CC2CCC(C1)N2C(=O)[C@]12C[C@H]1c1cc(F)ccc1-c1c(C3CCCCC3)c3ccc(C(=O)NS(=O)(=O)C4(C)CC4)cc3n1C2 [Compound 2, (1aR,12bS)-8-cyclohexyl-11-fluoro-N-((1-methylcyclopropyl)sulfonyl)-1a-((3-methyl-3,8-diazabicyclo[3.2.1]oct-8-yl)carbonyl)-1,1a,2,12b-tetrahydrocyclopropa[d]indolo[2,1-a][2]benzazepine-5-carboxamide] | 7 nM |  |  |  |  | 
2 | Nc1[nH]ncc1-c1cc(Cl)ccc1Oc1cc(F)c(S(=O)(=O)Nc2cscn2)cc1Cl [4-[2-(5-amino-1H-pyrazol-4-yl)-4-chlorophenoxy]-5-chloro-2-fluoro-N-(1,3-thiazol-4-yl)benzenesulfonamide] |  | increases during dosing | Day 3 | below the LLN | decreased | ≤ 2 days
